Assay results: US20230284994A1, “PET-CT IMAGING METHODS, CONTRAST AGENTS AND PHARMACEUTICAL COMPOSITIONS FOR USE IN SAID IMAGING METHODS” (ADIPOSS SÁRL, priority 2020, published 2023)

Columns and labels:
tumour metastases = experiment: 18FDG PET-CT scan for metastases in syngeneic B16F10 melanoma mouse model, necropsy as standard of truth; assay type: in vivo, C57B1/6 mice; details: six mice, 24 metastases by necropsy; scan without (18FDG only) or with oral PET-CT contrast agent
Experimental: Syngeneic mouse melanoma model (with tumor metastases dissemination to the lungs) was induced by intravenous injection of B16F10 murine melanoma cancer cells in C57B1/6 mice. 19 days after cells injection, the animals were administered with ^18FDG and a PET-CT scan was performed on each animal. One day later, the PET-CT contrast agent was administered via oral route to the same animals. Then, a second ^18FDG PET-CT scan was performed. The animals were then euthanized and necropsy was performed on each animal. Assessment of the PET-CT scans for co-localization of positive contrast enhancement of ^18FDG and PET-CT contrast agent allowed discriminating metastases from brown adipose tissue (FIGS. 2a and 3a). The ^18FDG signals present in BAT, that could be interpreted as false positives (metastases), were correctly attributed to BAT, improving the specificity and positive predictive value of the PET-CT scan for tumour metastases. This was confirmed by necropsy (FIGS. 2b, c and 3b, c). In total, based on necropsy (standard of truth), the six mice presented 24 metastases (four per mouse on average). […] Without the PET-CT contrast agent, the positive predictive value PPV of the ^18FDG PET-CT scan for metastases was 85% (FIG. 4). By using the PET-CT contrast agent, the PPV was 100%. The CT contrast agent thus improves the PPV of the ^18FDG PET-CT scan by 15%.

brown adipose tissue = experiment: 18FDG PET-CT scan for brown adipose tissue in syngeneic B16F10 melanoma mouse model, confirmed by necropsy; assay type: in vivo, C57B1/6 mice; details: 12 scans (six with, six without contrast agent); based on 18FDG uptake or on uptake of PET-CT contrast agent
Experimental: Syngeneic mouse melanoma model (with tumor metastases dissemination to the lungs) was induced by intravenous injection of B16F10 murine melanoma cancer cells in C57B1/6 mice. 19 days after cells injection, the animals were administered with ^18FDG and a PET-CT scan was performed on each animal. One day later, the PET-CT contrast agent was administered via oral route to the same animals. Then, a second ^18FDG PET-CT scan was performed. In total, 12 ^18FDG PET-CT scans were performed (six with and six without the PET-CT contrast agent). The animals were then euthanized and necropsy was performed. Assessment of the PET-CT scans for absence of ^18FDG uptake but presence of contrast enhancement due to the PET-CT contrast agent allowed easy and robust detection of brown adipose tissue, increasing the sensitivity and positive predictive value of the PET-CT scan or BAT. In total, ^18FDG uptake in BAT was present in nine out of 12 PET-CT scans. However, all mice had BAT. Based on ^18FDG uptake, the sensitivity of the PET-CT scan for BAT was 75% (FIG. 5). Based on the uptake of the PET-CT contrast agent, the sensitivity for BAT was 100%. Using the PET-CT contrast agent, the sensitivity of the PET-CT scan for BAT in mice was thus improved by 25%.

## O=C[C@H]([18F])[C@@H](O)[C@H](O)[C@H](O)CO [^18FDG, 2-[fluorine-18]fluoro-2-deoxy-D-glucose]
Tumour metastases
  positive predictive value PPV of the 18FDG PET-CT scan for metastases: 85%
Brown adipose tissue
  sensitivity of the 18FDG PET-CT scan for BAT: 75%
